T1: RAS wild-type (NRAS) peptide on HLA-A*01:01 (human)
T1 peptide: ILDTAGQEEY

T2: NRAS Q61K (RAS.Q61K) peptide on HLA-A*01:01 (human)
T2 peptide: ILDTAGKEEY

B1: N135.1 (TCR)
alpha TRAV19 TRAJ39 CDR3: CALSESHNNAGNMLTF
beta TRBV6-1 TRBJ1-1 CDR3: CAASQNTEAFF
B2: N17.2 (TCR)
alpha TRAV5 TRAJ9 CDR3: CAESSGGGFKTIF
beta TRBV6-6 TRBJ2-7 CDR3: CASSTPGPSAYEQYF
B3: N17.3 (TCR)
alpha TRAV19 TRAJ17 CDR3: CALSESGDAAGNKLTF
beta TRBV6-1 TRBJ1-1 CDR3: CAEGENTEAFF
B4: NA135.1/NB17.3 (TCR)
alpha TRAV19 TRAJ39 CDR3: CALSESHNNAGNMLTF
beta TRBV6-1 TRBJ1-1 CDR3: CAEGENTEAFF

Legend:
17TIL = assay: IFNγ release ELISA, 17TIL co-incubated with peptide-pulsed A*01:01 B-cells; assay type: cell-based, human; conditions: for IFN-γ release from TIL stimulated by pulsed peptide: peptide-pulsed A*01:01 EBV-transformed B cells, overnight co-incubation, vs non-pulsed B-cell control (FIG. 3A); for TIL IFNγ response in peptide titration: titrated concentrations of pulsed peptide (FIG. 3B)
Description: (§1) IFNγ's release from TIL, as measured in an enzyme-linked immunosorbent assay (ELISA), was used to quantify reactivity. Synthetic pure (>95% purity) mutant ([…] (SEQ ID NO: 1)) and wild-type ([…] (SEQ ID NO: 2)) peptides were purchased from GenScript and dissolved in DMSO.
(§2) EBV-transformed B-cells bearing HLA allele A*01:01 were used for peptide pulsing. A B-cell suspension at 1×10^6 cells/ml was incubated with the peptide of choice, at the desired concentration (0.001-10 μg/ml), for 4 h in a 37° C., 5% CO2, humidified incubator. The DMSO volume was kept at 1% in all samples. For the no-peptide control, DMSO devoid of peptides was added. The B-cells were washed in PBS three times before proceeding to the co-incubation with TILs. TILs were co-cultured with either cognate melanoma or EBV-transformed B-cells at a 1:1 ratio (10^5-2×10^6 cells) and incubated overnight in a 37° C., 5% CO2, humidified incubator. The soluble IFNγ secreted from TILs was quantified from the co-culture supernatant using Biolegend Human IFN-γ ELISA MAX Deluxe (Cat#430106). All experiments were conducted in biological triplicates.
(§3) To evaluate the immunogenicity of the NRAS.Q61K neo-antigen, two melanoma cell lines that harbor the HLA-A*01:01/NRAS.Q61K combination, 17T and 135T were analyzed. Synthetic mutant (ILDTAG ? EEY-SEQ ID NO: 1) or wild-type (ILDTAG ? EEY-SEQ ID NO: 2) peptide was pulsed on either one of three commercial, A*01:01 expressing, Epstein bar virus (EBV)-transformed B cells^35. No other HLA class-I allele was shared among all three B-cell lines, and no other HLA class-I allele expressed by these cell lines was predicted to bind the neo-peptide at hand (Table 2).
(§4) The peptide-pulsed B-cells were co-incubated with either 17TIL or 135TIL overnight, followed by measurement of peptide stimulated interferon-γ (IFN-γ) release from the TIL by means of enzyme-linked immunosorbent assay (ELISA). […] Peptide titration assays further confirmed specific TIL reactivity towards the HLA-A*01:01/NRAS.Q61K neo-antigen, for both 17TIL and 135TIL (FIG. 3B).

135TIL = assay: IFNγ release ELISA, 135TIL co-incubated with peptide-pulsed A*01:01 B-cells; assay type: cell-based, human; conditions: for IFN-γ release from TIL stimulated by pulsed peptide: peptide-pulsed A*01:01 EBV-transformed B cells, overnight co-incubation, vs non-pulsed B-cell control (FIG. 3A); for TIL IFNγ response in peptide titration: titrated concentrations of pulsed peptide (FIG. 3B)
Description: as §1, §2, §3, §4

[1] = target: T1, RAS wild-type (NRAS) peptide on …; assay: cytokine release
Description: (§5) Peripheral mononuclear cells (PBMC) from healthy donors were electroporated with in-vitro transcribed mRNA, coding for TCRα/TCRβ combinations of interest. […] (A) Flow cytometry plots for electroporated PBMC. Top row—mouse TCRβ constant region staining. Bottom row—[sequence]/A*01:01 tetramer staining. Cells were stained at 6-30 hours post electroporation. (B) IFNγ release from electroporated donor PBMC as measured in ELISA. A*01:01+ B-LCL IHW01161 was pulsed with either wild-type or mutant versions of the peptide at 10 μM prior to overnight co-incubation with electroporated PBMC. Supernatants were diluted 1:20 prior to assay performance to avoid saturation.

[2] = target: T2, NRAS Q61K (RAS.Q61K) peptide on …; assay: multimer staining
Description: as §5

[3] = target: T2, NRAS Q61K (RAS.Q61K) peptide on …; assay: cytokine release
Description: as §5

Molecule | IFN-γ release from TIL stimulated by pulsed peptide (17TIL) | TIL IFNγ response in peptide titration (17TIL) | IFN-γ release from TIL stimulated by pulsed peptide (135TIL) | TIL IFNγ response in peptide titration (135TIL) | binding result [1] | binding result [2] | other results
ILDTAGKEEY [RAS.Q61-derived neo-peptide, variant Q61K; presented on HLA-A*01:01] | stimulated a clear interferon-γ (IFN-γ) signal | clear dose-response relationship | stimulated a clear interferon-γ (IFN-γ) signal | clear dose-response relationship | – | – | minimum peptide concentration with significant IFNγ response (17TIL; peptide titration (FIG. 3B)): 10 ng/mL; minimum peptide concentration with significant IFNγ response (135TIL; peptide titration (FIG. 3B)): 1 ng/mL
ILDTAGQEEY [WT RAS.Q61-derived peptide, reference compound] | did not elicit significant increase over a non-pulsed B-cell control | non-significant and did not depend on peptide concentration | did not elicit significant increase over a non-pulsed B-cell control | non-significant and did not depend on peptide concentration | – | – | –
B1 | – | – | – | – | no recognition | recognises | –
B2 | – | – | – | – | no recognition | recognises | –
B3 | – | – | – | – | no recognition | recognises | –
B4 | – | – | – | – | – | – | binding result [3]: recognises

Reference: patent publication US20220241331A1, “IDENTIFICATION OF RECURRENT MUTATED NEOPEPTIDES” (Yeda Research and Development Co. Ltd., priority 2019, published 2022)
